Each compound was assayed against T1, human cGAS (residues 161-522) (Homo sapiens, UniProt Q8N884) (assay: cGAS Activity Assay—Malachite Green). Conditions: recombinant purified human cGAS 25 nM; 80 μM ATP, 80 μM GTP, 100 nM ISD; 4 hour at RT; phosphate detection by Malachite Green.
T1 construct: human cGAS (residues 161-522); made in house
Type: biochemical
Procedure: Compounds were tested for cGAS inhibition in a coupled enzymatic assay based on Phosphate detection by Malachite Green. Final assay conditions were 20 mM TRIS pH 7.5 (Applichem), 5 mM MgCl2 (Sigma) and 0.01% BSA (Sigma) supplemented with 80 μM ATP (Sigma), 80 μM GTP (Sigma) and 100 nM Interferon Stimulating DNA (ISD) (Microsynth). Recombinantly expressed purified human cGAS (residues 161-522) was used at 25 nM.
All compounds were prepared as 10 mM stock solutions in DMSO and a 16 pt dilution series in DMSO with a dilution factor of 2.5 was prepared. 1 μL of DMSO dilution series was transferred to 32.3 μL reaction buffer, mixed by pipetting up/down, spun for 1 minute at 3000 rpm and was visually inspected for precipitation. 5 μL of 3-fold enzyme stock solution were transferred to an empty 384-well Black/Clear Flat Bottom Polystyrene NBS (Corning) rows 3-24. Rows 1-2 were filled with assay buffer. Plates were spun 10 seconds at 1000 rpm (164×g). 5 μL of compound intermediate dilution was added and mixed by pipetting up/down to rows 3-24. Rows 1-2 were filled with 3.1% DMSO assay buffer. Plates were spun 10 seconds at 1000 rpm (164×g). 5 μL 3-fold Nucleotide/DNA mix was added to all wells to start the reaction. Plates were spun 10 seconds at 1000 rpm (164×g) and incubated for 4 hour at room temperature (RT) in the dark. 5 μL 4 U/ml PPase (Sigma) were added to all wells. Plates spun 10 seconds at 1000 rpm (164×g). 10 μL BioMol green Solution (Enzo Life Sciences) was added to all wells. Plates spun 10 seconds at 1000 rpm (164×g) and incubated 30 minutes at RT in the dark. Absorbance data was collected 620 nm on an EnVision Multilable Reader (Perkin Elmer) and the following measurement settings were used: excitation filter photometric was 620 nm; excitation from the top; measurement height was 1 mm; number of flashes was 30; number of flashes integrated was 1.
All plates are checked for abnormalities and outliers in the Blank Control (no protein, row 1) and the Neutral Control (no compound, row 2) are excluded using the 3*SD rule. Data was normalized to 0 and 100% by Blank and Neutral Control and each curve was fitted and judged using the 4 parameter logistic equation to determine the IC50 for cGAS inhibition.
Table 13 provides IC50 values (μM) for cGAS inhibition obtained for particular examples of the present invention as measured by the above-described assay.

T1 sequence (Q8N884 161-522): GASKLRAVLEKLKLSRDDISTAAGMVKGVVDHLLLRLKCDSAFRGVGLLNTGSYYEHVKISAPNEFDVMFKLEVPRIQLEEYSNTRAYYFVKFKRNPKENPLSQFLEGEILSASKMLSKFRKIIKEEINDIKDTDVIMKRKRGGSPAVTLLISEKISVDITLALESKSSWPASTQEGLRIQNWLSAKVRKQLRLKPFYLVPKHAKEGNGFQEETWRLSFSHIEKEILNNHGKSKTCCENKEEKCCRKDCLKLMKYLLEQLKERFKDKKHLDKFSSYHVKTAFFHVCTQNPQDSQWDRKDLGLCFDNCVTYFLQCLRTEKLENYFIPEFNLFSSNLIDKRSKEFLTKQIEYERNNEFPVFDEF

| Structure (SMILES) | IC50 |
| --- | --- |
| Cc1oncc1/C(O)=C(\C#N)C(=O)Nc1ncc(Oc2ccccc2)cn1 [Example 82, (Z)-2-cyano-3-hydroxy-3-(5-methylisoxazol-4-yl)-N-(5-phenoxypyrimidin-2-yl)acrylamide] | 300 nM |
| Cc1oncc1/C(O)=C(\C#N)C(=O)Nc1ccc(Oc2ccc(Cl)cc2)c(Cl)c1 [Example 24, (Z)-N-(3-chloro-4-(4-chlorophenoxy)phenyl)-2-cyano-2-hydroxy-3-(5-methylisoxazol-4-yl)acrylamide] | 4370 nM |
| Cc1oncc1/C(O)=C(\C#N)C(=O)Nc1ccc(C(C)(C)c2ccccc2)cc1 [Example 104, (Z)-2-cyano-3-hydroxy-3-(5-methylisoxazol-4-yl)-N-(4-(2-phenylpropan-2-yl)phenyl)acrylamide] | 3110 nM |
| Cc1oncc1/C(O)=C(\C#N)C(=O)Nc1ncc(CCc2ccccc2)cn1 [Example 102, (Z)-2-cyano-3-hydroxy-3-(5-methylisoxazol-4-yl)-N-(5-phenethylpyrimidin-2-yl)acrylamide] | 150 nM |
| Cc1oncc1/C(O)=C(\C#N)C(=O)Nc1ncc(C(=O)NCc2ccccc2)cn1 [Example 106, N-benzyl-2-[[(Z)-2-cyano-3-hydroxy-3-(5-methylisoxazol-4-yl)prop-2-enoyl]amino]pyrimidine-5-carboxamide] | 50 nM |
| Cc1oncc1/C(O)=C(\C#N)C(=O)Nc1ccc(S(=O)(=O)c2ccccc2)cn1 [Example 95, (Z)-2-cyano-3-hydroxy-3-(5-methylisoxazol-4-yl)-N-(5-(phenylsulfonyl)pyridin-2-yl)acrylamide] | 100 nM |
| CCS(=O)(=O)c1cnc(NC(=O)/C(C#N)=C(\O)c2cnoc2C)nc1 [Example 103, (Z)-2-cyano-N-(5-(ethylsulfonyl)pyrimidin-2-yl)-3-hydroxy-3-(5-methylisoxazol-4-yl)acrylamide] | 40 nM |
| COc1cnc(NC(=O)/C(C#N)=C(\O)c2cnoc2C)nc1CCc1ccccc1 [Example 129, (Z)-2-cyano-3-hydroxy-N-(5-methoxy-4-phenethylpyrimidin-2-yl)-3-(5-methylisoxazol-4-yl)acrylamide] | 520 nM |
| Cc1oncc1/C(O)=C(\C#N)C(=O)Nc1ccc(C(F)(F)F)cn1 [Example 66, (Z)-2-cyano-3-hydroxy-3-(5-methylisoxazol-4-yl)-N-(5-(trifluoromethyl)pyridin-2-yl)acrylamide] | 490 nM |
| Cc1oncc1/C(O)=C(\C#N)C(=O)Nc1ncc(S(C)(=O)=O)c(CCc2ccccc2)n1 [Example 138, (Z)-2-cyano-3-hydroxy-3-(5-methylisoxazol-4-yl)-N-(5-(methylsulfonyl)-4-phenethylpyrimidin-2-yl)acrylamide] | 200 nM |
| Cc1oncc1/C(O)=C(\C#N)C(=O)Nc1ncc(C(=O)Nc2ccccc2)cn1 [Example 105, 2-[[(Z)-2-cyano-3-hydroxy-3-(5-methylisoxazol-4-yl)prop-2-enoyl]amino]-N-phenyl-pyrimidin-5-carboxamide] | 150 nM |
| COCCNS(=O)(=O)c1cnc(NC(=O)/C(C#N)=C(\O)c2cnoc2C)nc1 [Example 118, (Z)-2-cyano-3-hydroxy-N-(5-(N-(2-methoxy-ethyl)sulfamoyl)pyrimidin-2-yl)-3-(5-methylisoxazol-4-yl)acrylamide] | 40 nM |
| Cc1oncc1/C(O)=C(\C#N)C(=O)Nc1nccc(CCc2ccccc2)n1 [Example 87, (Z)-2-cyano-3-hydroxy-3-(5-methylisoxazol-4-yl)-N-(4-phenethylpyrimidin-2-yl)acrylamide] | 240 nM |
| CCOc1cnc(NC(=O)/C(C#N)=C(\O)c2cnoc2C)nc1 [Example 98, (Z)-2-cyano-N-(5-ethoxypyrimidin-2-yl)-3-hydroxy-3-(5-methylisoxazol-4-yl)acrylamide] | 80 nM |
| Cc1oncc1/C(O)=C(\C#N)C(=O)Nc1ncc(C(=O)N(C)c2ccccc2)c(-c2ccccc2)n1 [Example 135, (Z)-2-(2-cyano-3-hydroxy-3-(5-methylisoxazol-4-yl)acrylamido)-N-methyl-N,4-diphenylpyrimidine-5-carboxamide] | 570 nM |
| Cc1oncc1/C(O)=C(\C#N)C(=O)Nc1cccc(S(=O)(=O)c2ccccc2)c1 [Example 49, (Z)-2-cyano-3-hydroxy-3-(5-methylisoxazol-4-yl)-N-(3-(phenylsulfonyl)phenyl) acrylamide] | 2500 nM |
| Cc1oncc1/C(O)=C(\C#N)C(=O)Nc1ccccc1 [Example 3, (Z)-2-cyano-3-hydroxy-3-(5-methylisoxazol-4-yl)-N-phenylacrylamide] | 1070 nM |
| Cc1oncc1/C(O)=C(\C#N)C(=O)Nc1ncc(S(=O)(=O)N(C)C)cn1 [Example 96, (Z)-2-cyano-N-(5-(N,N-dimethylsulfamoyl)pyrimidin-2-yl)-3-hydroxy-3-(5-methylisoxazol-4-yl)acrylamide] | 70 nM |

Other lines, results leading:

| IC50 | Structure (SMILES) |
| --- | --- |
| 90 nM | Cc1oncc1/C(O)=C(\C#N)C(=O)Nc1ccc(S(=O)(=O)Nc2ncccn2)cc1 [Example 45, (Z)-2-cyano-3-hydroxy-3-(5-methylisoxazol-4-yl)-N-[4-(pyrimidin-2-ylsulfamoyl)phenyl]prop-2-enamide] |
| 420 nM | COCCOc1cnc(NC(=O)/C(C#N)=C(\O)c2cnoc2C)nc1-c1ccccc1 [Example 126, (Z)-2-cyano-3-hydroxy-N-(5-(2-methoxyethoxy)-4-phenylpyrimidin-2-yl)-3-(5-methylisoxazol-4-yl)acrylamide] |
| 470 nM | Cc1oncc1/C(O)=C(\C#N)C(=O)Nc1ccc(CC(=O)O)cc1 [Example 145, 2-[4-[[(Z)-2-Cyano-3-hydroxy-3-(5-methylisoxazol-4-yl)prop-2-enoyl]amino]phenyl]acetic acid] |
| 3710 nM | Cc1oncc1/C(O)=C(\C#N)C(=O)Nc1ccc(Oc2cccc(C(F)(F)F)c2)cc1 [Example 18, (Z)-2-cyano-3-hydroxy-3-(5-methylisoxazol-4-yl)-N-(4-(3-(trifluoromethyl)phenoxy)phenyl)acrylamide] |
| 330 nM | Cc1oncc1C(=O)N(c1ccc(C#N)cc1)S(=O)(=O)c1ccc(NC(=O)/C(C#N)=C(\O)c2cnoc2C)cc1 [Example 58, (Z)-N-((4-(2-cyano-3-hydroxy-3-(5-methylisoxazol-4-yl)acrylamido)phenyl)sulfonyl)-N-(4-cyanophenyl)-5-methylisoxazole-4-carboxamide] |
| 140 nM | Cc1oncc1/C(O)=C(\C#N)C(=O)Nc1ncc(OC2CCCCC2)cn1 [Example 73, (Z)-2-cyano-N-(5-(cyclohexyloxy)pyrimidin-2-yl)-3-hydroxy-3-(5-methylisoxazol-4-yl)acrylamide] |
| 2520 nM | Cc1oncc1/C(O)=C(\C#N)C(=O)Nc1ccc(C(=O)N(C)CC2CCCCC2)c(Cl)c1 [Example 77, (Z)-2-chloro-4-(2-cyano-3-hydroxy-3-(5-methylisoxazol-4-yl)acrylamido)-N-(cyclohexylmethyl)-N-methylbenzamide] |
| 370 nM | COCCOc1cnc(NC(=O)/C(C#N)=C(\O)c2cnoc2C)nc1CCc1ccccc1 [Example 128, (Z)-2-cyano-3-hydroxy-N-(5-(2-methoxyethoxy)-4-phenethylpyrimidin-2-yl)-3-(5-methylisoxazol-4-yl)acrylamide] |
| 370 nM | CNC(=O)c1ccc(NC(=O)/C(C#N)=C(\O)c2cnoc2C)cc1 [Example 36, 4-[[(Z)-2-cyano-3-hydroxy-3-(5-methylisoxazol-4-yl)prop-2-enoyl]amino]-N-methyl-benzamide] |
| 790 nM | Cc1oncc1/C(O)=C(\C#N)C(=O)Nc1ccc(C#N)cc1 [Example 7, (Z)-2-cyano-N-(4-cyanophenyl)-3-hydroxy-3-(5-methylisoxazol-4-yl)acrylamide] |
| 130 nM | Cc1oncc1/C(O)=C(\C#N)C(=O)Nc1ccc(S(=O)(=O)c2ccccc2C#N)cc1 [Example 122, (Z)-2-cyano-N-(4-((2-cyanophenyl)sulfonyl)phenyl)-3-hydroxy-3-(5-methylisoxazol-4-yl)acrylamide] |
| 5190 nM | N#C/C(C(=O)Nc1ccc(C(F)(F)F)cc1)=C(/O)c1cnoc1 [Example 142, (Z)-2-cyano-3-hydroxy-3-(isoxazol-4-yl)-N-(4-(trifluoromethyl)phenyl)acrylamide] |
| 490 nM | COc1ccc(S(=O)(=O)c2ccc(NC(=O)/C(C#N)=C(\O)c3cnoc3C)cc2)cc1 [Example 39, (Z)-2-cyano-3-hydroxy-N-(4-((4-methoxyphenyl)sulfonyl)phenyl)-3-(5-methylisoxazol-4-yl)acrylamide] |
